Measurements as given in PubChem BioAssay (NCI).
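Following 48 hours of exposure in 96-well plates, responses at five concentrations were used to interpolate endpoints linearly. Here, GI50 denotes the concentration required for 50% inhibition of growth. TGI: concentration producing complete growth inhibition.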

Assays:
Assay in all cases: inhibition of tumour cell growth, NCI panel, 48 h
PC-3 prostate = test system: PC-3 prostate
UACC-257 melanoma = test system: UACC-257 melanoma
786-0 renal = test system: 786-0 renal
SK-MEL-5 melanoma = test system: SK-MEL-5 melanoma
U251 CNS = test system: U251 CNS
A498 renal = test system: A498 renal
HT29 colon = test system: HT29 colon
LOX IMVI melanoma = test system: LOX IMVI melanoma
KM12 colon = test system: KM12 colon
UO-31 renal = test system: UO-31 renal

Structure (SMILES) | TGI (PC-3 prostate) | TGI (UACC-257 melanoma) | TGI (786-0 renal) | TGI (SK-MEL-5 melanoma) | TGI (U251 CNS) | TGI (A498 renal) | TGI (HT29 colon) | TGI (LOX IMVI melanoma) | TGI (KM12 colon) | TGI (UO-31 renal) | GI50 (PC-3 prostate) | GI50 (UACC-257 melanoma) | GI50 (786-0 renal) | GI50 (SK-MEL-5 melanoma) | GI50 (U251 CNS) | GI50 (A498 renal) | GI50 (HT29 colon) | GI50 (UO-31 renal) | GI50 (LOX IMVI melanoma) | GI50 (KM12 colon)
COc1cc2c3cc1Oc1c(OC)c(OC)cc4c1C(=NCC4)Cc1ccc(cc1)Oc1cc(ccc1O)C[C@H]3N(C)CC2 | 42.5 µM | 29.6 µM | 22.8 µM | 24.6 µM | 45.2 µM | 36.7 µM | 23.3 µM | 25.1 µM | 29.8 µM |  |  |  |  |  |  |  |  |  |  | 
NC(N)=NCC1CCCCCCN1 (stereo unspecified) | > 100 µM | > 100 µM | > 100 µM | > 100 µM | > 100 µM | > 100 µM | > 100 µM |  | > 100 µM | > 100 µM |  |  |  |  |  |  |  |  |  | 
CC1=C2CC(C)(C)/C=C\C(=O)/C(C)=C\C3=C[C@H](C)C[C@]3(O2)C1=O | 7.09 µM | 4.41 µM | 1.25 µM | 8.06 µM | 9.98 µM | 11.1 µM | 2.76 µM | 1.64 µM | 6 µM | 2.61 µM |  |  |  |  |  |  |  |  |  | 
CC(C)N1CCN(c2ccncc2S(=O)(=O)N2CCCCC2)CC1 | > 100 µM | > 100 µM | > 100 µM | > 100 µM | > 100 µM | > 100 µM | > 100 µM | > 100 µM | > 100 µM | > 100 µM |  |  |  |  |  |  |  |  |  | 
O=C1/C=C/[C@@H](O)[C@@H]2C[C@@H](O)C[C@H]2/C=C/CCC[C@H](CCc2cccc3ccccc23)O1 | 12 µM | 0.983 µM | 0.0372 µM | 0.0326 µM | 12.1 µM | 0.815 µM | 0.373 µM | 0.11 µM | 0.959 µM | 12.3 µM | 0.065 µM | 0.0303 µM | 0.02 µM | 0.0171 µM | 0.0475 µM | 0.0185 µM | 0.0347 µM | 0.046 µM | 0.0323 µM | 0.032 µM
C[C@@]1(C(=O)O)CCC[C@]2(C)C1CC[C@@]13C[C@@](O)(CC[C@]12O)[C@@]1(CO1)C3 (stereo partly specified) | > 100 µM | > 100 µM | > 100 µM | > 100 µM | > 100 µM | > 100 µM | > 100 µM | > 100 µM | > 100 µM | > 100 µM | > 100 µM | > 100 µM | > 100 µM | > 100 µM | > 100 µM | > 100 µM | > 100 µM | > 100 µM | > 100 µM | > 100 µM
O=C(CCl)NCCNc1nccc(Nc2ccc(S(=O)(=O)Nc3ccccn3)cc2)n1 | 7.45 µM | 14.4 µM | 11.7 µM | 2.94 µM | 3.43 µM | 13.1 µM | 6.52 µM | 4.12 µM | 11.6 µM | 10 µM | 2.5 µM | 2.54 µM | 3.25 µM | 1.53 µM | 1.21 µM | 3.67 µM | 2.41 µM | 2.77 µM | 1.75 µM | 3.12 µM
N#Cc1c(NCc2ccccc2)nc(NCc2ccccc2)c(C#N)c1-c1ccc(O)cc1 | > 100 µM | > 100 µM | > 100 µM | 34.3 µM | 54.5 µM | 63.5 µM | > 100 µM | 41.4 µM | 59.7 µM | 68.5 µM | 25.6 µM | 43.2 µM | 23 µM | 15.3 µM | 19.2 µM | 24.9 µM | 60.2 µM | 18.6 µM | 16.7 µM | 16.8 µM
C=C1C(=O)O[C@H]2[C@H]1CC/C(COC(=O)NCc1c[nH]c3ccccc13)=C\CC[C@@]1(C)O[C@@H]21 | 18.9 µM | 15.9 µM | 3.93 µM | 25 µM | 23.1 µM | 23.2 µM | 9.69 µM | 2.87 µM | 30.7 µM | 2.68 µM | 5.16 µM | 4.25 µM | 1.78 µM | 12.1 µM | 11.1 µM | 11.1 µM | 3.1 µM | 1.34 µM | 1.4 µM | 13.8 µM
O=C(Nc1ccc(Cc2ccccc2)cc1)Nc1nn(C(=O)Nc2ccc(Cc3ccccc3)cc2)c2ccccc12 | > 100 µM | > 100 µM | > 100 µM | > 100 µM | > 100 µM | > 100 µM | > 100 µM | > 100 µM | > 100 µM | > 100 µM | > 100 µM | > 100 µM | > 100 µM | > 100 µM | 70.2 µM | 82.4 µM | > 100 µM | > 100 µM | 71 µM | > 100 µM
Oc1ccc(Nc2ccc3ccccc3c2)cc1 | 68.2 µM | 34.3 µM | 15.5 µM | 11.2 µM | 23.9 µM | 23.2 µM | 65.8 µM | 21.9 µM | 10 µM | 9.49 µM | 4.41 µM | 4.86 µM | 3.78 µM | 3.11 µM | 4.83 µM | 4.1 µM | 23 µM | 1.6 µM | 8.25 µM | 2.94 µM
COc1cccc(/C=C/C(=O)c2ccc(SC)cc2)c1OC | 43.8 µM | 29.3 µM | 28.2 µM | 30.3 µM | 24 µM | 23.8 µM | 48.8 µM |  | 33.4 µM | 31.1 µM | 17 µM | 15.7 µM | 14.2 µM | 16.4 µM | 10.4 µM | 11.3 µM | 9.97 µM | 17 µM |  | 16.6 µM
CC1(C)S[C@@H]2[C@H](N3C(=O)c4ccccc4C3=O)CN2[C@H]1NC(=O)N[C@@H]1N2C[C@@H](N3C(=O)c4ccccc4C3=O)[C@H]2SC1(C)C | > 100 µM |  | > 100 µM | > 100 µM | 58.5 µM | > 100 µM | > 100 µM | > 100 µM | > 100 µM | > 100 µM |  |  |  |  |  |  |  |  |  | 
Nc1c(C(=O)Nc2ccccc2)sc2nc3c(cc12)CCCCC3 | > 100 µM | > 100 µM | 11.8 µM | 5.2 µM | 19.5 µM | 4.74 µM |  | > 100 µM | > 100 µM | > 100 µM | 0.547 µM | 1.46 µM | 0.465 µM | 0.353 µM | 0.767 µM | 0.307 µM |  | 0.917 µM | 0.907 µM | 0.52 µM
COc1ccc2c(c1)c(-c1nc(-c3c[nH]c4ncccc34)cs1)cn2CCCN1CCCCC1 | 3.29 µM | 3.69 µM | 3.06 µM |  | 3.21 µM | 3.42 µM | 3.53 µM | 3.18 µM | 3.86 µM | 2.83 µM | 1.7 µM | 1.96 µM | 1.61 µM |  | 1.78 µM | 1.82 µM | 1.81 µM | 1.38 µM | 1.67 µM | 1.87 µM
